Experimental data published in PubChem BioAssay AID1671353.

Molecular target: Serine/threonine-protein kinase pim-1 (Homo sapiens) (UniProt P11309)
Assay: inhibition of PIM1 peptide phosphorylation – biochemical, Z'-LYTE FRET, direct format, recombinant human, dose response (AID 1671353)

For `Brc1c(Br)c(Br)c2n[nH]nc2c1Br`, the IC50 was 1970 nM.
